Experimental data: paper PMC10214526, “Semisynthetic LC3 Probes for Autophagy Pathways Reveal a Noncanonical LC3 Interacting Region Motif Crucial for the Enzymatic Activity of Human ATG3” (ACS Central Science, 2023)

What was measured:
[1] = system: ATG3 C1; assay: NaCl dependence of cross-linking of probe 2 with ATG3 C1; format: biochemical, human; settings: probe 2 15 μM, ATG3 C1 15 μM, phosphate buffer, NaCl 0-500 mM, 37 °C, 30 min; n = 3
Description: Farnung et al. Supplementary Information […]
electrostatic representation of ATG3 LIR motif and GABARAP
Figure S13. Interaction of ATG3 and GABARAP is salt-dependent. a, ColabFold prediction of ATG3-GABARAP complex (in Fig. 1c) shown with its Coulombic potential. Only LIR motif of ATG3 shown for clarity.
LIRATG3 is mostly negatively charged and binds to a strongly positively charged surface on GABARAP. b, Binding of cyclized LIRATG3 peptide to GABARAP (0.2 μM) in the presence of varying amounts of NaCl. Binding was performed in triplicates and normalized to polarization for 0 mM NaCl. c, Modification of ATG3 C1 with 2 in the presence of increasing concentrations of NaCl (0 -500 mM). Coomassie Blue stained SDS-PAGE gel was analyzed by gel densitometry. d, Quantification of data shown in […]. […]
Figure S14. […] Lipidation was assessed by immunoblotting against LC3A/B. Lipidation was observed upon re-expression of ATG3 wt but not ATG3 C264A or ΔLIR. As a positive control wild-type HEK293T cells were starved and analyzed in parallel to ATG3 –/– cells. […]
SDS-PAGE (8-16%, Bio-Rad) and visualized by Coomassie staining. Gel bands were quantified by gel densitometry using ImageLab (Bio-Rad).
ATG3 C1 (15 μM) was mixed with GABARAP methyl fumarate 2 (15 μM) in PBS, and the reaction mixture was incubated at 37 °C for 30 min. […] Gel bands were quantified by gel densitometry using ImageLab […]

[2] = system: ATG3; assay: Reaction (cross-linking) of Ubl activity-based probes with recombinant ATG3 and variants; format: biochemical, human; settings: probe 15 μM; ATG3 wt, C264A and ΔLIR 5 μM; SDS-PAGE (Figure S9)

## GABARAP(ΔG116)–NHNH methyl-fumarate [compound 2]
[1]
  Effect of increasing NaCl on cross-linking with ATG3 C1: reduced
[2]
  LIR dependence of ATG3 wild-type modification: dependent on LIRATG3
